How the values were obtained:
U373 = assay: MTT colorimetric assay, overall cell growth; assay type: cell-based; details: Homo sapiens, U373 MG; U373 cells, 72 hours of incubation; read-out: IC50 (µM) In Vitro Growth Inhibitory Concentrations (MTT Colorimetric Assay) U373
Method: (§2) The compounds and particularly dihydrobenzopyran, thiochroman, tetrahydroquinoleine and tetrahydronaphthalene derivatives of the invention were evaluated for their anti-proliferative effect (by means of the colorimetric MTT assay), in the following human glioblastoma cell-lines U373, T98G and Hs683 and in the mouse glioma cell line GL261. Normal brain cells (primocultures from newborn mice) were also used in order to determine the bioselectivity (B^N/C) of the compounds of interest, i.e. the ratio between the concentrations that inhibits 50% of the growth of brain cancer (C) cells (glioma cells) and the concentration that inhibits 50% of the growth of normal (N) brain cells (primocultures of astrocytes). The ideal situation to be reached is a bioselectivity of B^N/C > 10.
(§3) MTT tests were performed in order to rapidly, i.e. within 5 days, measure the effect of compounds of this invention on the overall cell growth. The test measured the number of metabolically active living cells that were able to transform the yellow product 3-(4,5-dimethylthiazol-2-yl)-2,5-diphenyl tetrazolium bromide (herein referred as MTT) into the blue product formazan dye by mitochondrial reduction. The amount of formazan obtained at the end of the experiment, measured by means of a spectrophotometer, is directly proportional to the number of living cells. Optical density determination thus enabled a quantitative measurement of the effect of the investigated compounds as compared to the control condition (untreated cells) and/or to other reference compounds.
(§4) Three human cancer cell lines were used in the following MTT tests.
(§5) To perform the assay, cells were allowed to grow in 96-well micro-wells with a flat bottom with an amount of 100 µl of cell suspension per well with 1,000 to 8,000 cells/well depending on the cell type used. Each cell line was seeded in its appropriate culture medium.
(§6) The detailed experimental procedure was the following: after a 24-hour period of incubation at 37°C, the culture medium was replaced by 100 µl of fresh medium in which the tested compound was previously dissolved, at the following molar concentrations: 10^-8 M, 5.10^-8 M, 10^-7 M, 5.10^-7 M, 10^-6 M, 5.10^-6 M, 10^-5 M, 5.10^-5 M and 10^-4 M. Each experiment was performed in sextuplicate (6 times).
(§7) After 72 hours of incubation at 37°C with (experimental conditions) or without (control condition) the compound to be tested, the medium was replaced by 100 µl MTT dissolved in RPMI (1640 without phenol red) at a concentration of 0.5 mg/ml. The micro-wells were subsequently incubated during 3 hours and a half at 37°C and centrifuged at 1300 rpm during 10 minutes. MTT was removed and formazan crystals formed were dissolved in 100 µl DMSO. The micro-wells were shaken for 5 minutes and read on a spectrophotometer at wavelengths of 570 nm (maximal formazan absorbance).
(§8) For each experimental condition, the mean optical density was calculated, allowing the determination of the percentage of remaining living cells in comparison to the control.

Hs683 = assay: MTT colorimetric assay, overall cell growth; assay type: cell-based; details: Homo sapiens, Hs 683; Hs683 cells, 72 hours of incubation; read-out: IC50 (µM) In Vitro Growth Inhibitory Concentrations (MTT Colorimetric Assay) Hs683
Method: as §2, §3, §4, §5, §6, §7, §8

[1] = tested on: three Human Glioma Cell Lines; assay: MTT colorimetric assay, mean over the three glioma cell lines; assay type: cell-based; details: mean of the three human glioma cell lines, 72h (Table 2); read-out: Mean IC50 MTT values ± SEM (µM) Glioma - Human Brain cancer cells (I - 72h)
Method: (§1) Table 2: Bioselectivity determined by dividing the IC50 obtained with glioma cell lines by the IC50 obtained with normal astrocytes. Bioselectivity was determined only for those compounds whose mean + SEM values on the three human glioma cell lines were ≤ 20 µM.

[2] = tested on: Astrocytes - Mouse normal brain cells; assay: MTT colorimetric assay on normal astrocytes (bioselectivity); assay type: cell-based; details: Astrocyte, primocultures of astrocytes from newborn mice, 72h, read-out: Mean IC50 MTT values ± SEM (µM) Astrocytes - Mouse normal brain cells (II - 72h)
[3] = tested on: Astrocytes - Mouse normal brain cells; assay: as above; assay type: cell-based
Method: as §1

[4] = tested on: human U373 glioma cell line; assay: Quantitative videomicroscopy (computer-assisted phase-contrast microscopy); assay type: cell-based; details: U373 cells treated at the IC50 concentration from MTT, filmed for 72h; cytostatic versus cytotoxic effects
Text: In addition, the inventors could establish that the compounds of the invention act through a non-apoptosis-related mechanism thanks to a unique experimental approach used by the inventors, i.e. computer-assisted phase-contrast microscopy (quantitative videomicroscopy), making them good candidates as anti-cancer drugs for treating apoptosis-resistant tumor or cancer cells and for overcoming problems linked to the known anti-cancer drugs.
As the MTT test is based on the mitochondria functions, we also investigated the effects of the compounds according to the invention on cell proliferation, migration and morphology by means of a cellular imaging approach (Debeir et al., Cytometry 60:29-40, 2004; Debeir et al., IEEE Trans Med Imaging 24:697-711, 2005) in the human U373 glioma cell line, which is apoptosis-resistant but autophagy-sensitive (Lefranc F et al., Neurosurgery 2008).
Cellular imaging relied on the use of computer-assisted phase-contrast microscopy making possible to film the behaviour of living cells in culture dishes for several days.
Cells were seeded in a 25-cm^2 flask at a low density, treated or not with the compounds of the invention (at their IC50 concentration determined previously by MTT tests) and filmed thereafter for a period of 72h. The experiment was conducted in triplicate.
The behaviour of the cells, in terms of morphology, growth and death were thus investigated. The effect on the overall growth was measured by counting the number of cells on the first (0h) and the last image (72h) of each film. The global growth ratio (GGR) was then deduced by dividing the number of cells on the last image by the number of cells on the first image. The ratio GGRtreated cells / GGRcontrol cells, was further calculated thereby obtaining a value that describes the effect of compounds of the present invention on the overall cell growth.
The methodology is fully described and validated in Debeir et al., 2008, Exp Cell Res 314:2985-2998 and Mathieu et al., 2009, J Cell Mol Med, Feb 20, 2009.
Thanks to the quantitative videomicroscopy (QVM) approach, we classified the compounds into 4 distinctive classes on the basis of their cytostatic versus cytotoxic effects (Table 3). • Class I: actually cytostatic for 3 days (< 10 % of cell death at the 3rd day) • Class II: cytostatic but becomes cytotoxic with < 10% cell death on the 2nd day and > 20% of cell death on the 3rd day • Class III: cytostatic but rapidly becomes cytotoxic with < 10% cell death on the 1st day, > 20% of cell death on the 2nd day and > 50% of cell death on the 3rd day • Class IV: cytotoxic (> 50% of cell death on the first day)
In Fig. 1a, compounds of example 14 (5 µM), example 19 (20 µM) and example 23 (5 µM) belong to QVM Class I because they display cytostatic effects on human U373 GBM cells during the whole duration of the experiment. Cytostatic effects mean that < 10 % of cell death was recorded at the end of the experiment, i.e. at the end of the 3rd day. QVM analyses enable the global growth ratio (GGR) to be calculated in each experiment. The GGR index is obtained by dividing the number of cells in the last image by the number of cells in the first image of the experiment, knowing that 1080 images are taken during the 72 h-period of observation. The ratio GGR^treated cells / GGR^control cells was further calculated thereby obtaining a value that describes the effect of compounds on the overall cell growth. Thus, a GGR index of 0.2 means that they remain only 20% of treated cells compare to the control cells at the end of the experiment.

T98G = assay: MTT colorimetric assay, overall cell growth; details: Homo sapiens, 72 h, read-out: IC50 (µM) In Vitro Growth Inhibitory Concentrations (MTT Colorimetric Assay) T98G;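 note: growth inhibition of the human glioblastoma line measured by MTT reduction to formazan, optical density read on a spectrophotometer at 570 nm, untreated cells as control, nine concentrations from 10 nM to 100 µM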
Method: The compounds and particularly dihydrobenzopyran, thiochroman, tetrahydroquinoleine and tetrahydronaphthalene derivatives of the invention were evaluated for their anti-proliferative effect (by means of the colorimetric MTT assay), in the following human glioblastoma cell-lines U373, T98G and Hs683 and in the mouse glioma cell line GL261. Normal brain cells (primocultures from newborn mice) were also used in order to determine the bioselectivity (B^N/C) of the compounds of interest, i.e. the ratio between the concentrations that inhibits 50% of the growth of brain cancer (C) cells (glioma cells) and the concentration that inhibits 50% of the growth of normal (N) brain cells (primocultures of astrocytes).
as §3, §4, §5, §6
The micro-wells were subsequently incubated during 3 hours and a half at 37°C and centrifuged at 1300 rpm during 10 minutes. MTT was removed and formazan crystals formed were dissolved in 100 µl DMSO. The micro-wells were shaken for 5 minutes and read on a spectrophotometer at wavelengths of 570 nm (maximal formazan absorbance).
as §8

`CC(C)(C)OC(=O)Nc1ccc2c(c1)C(NC(=O)Nc1cccc(Cl)c1)CC(C)(C)O2` (racemic) [Example 16, R/S-N-3-chlorophenyl-N'-(6-tert-butoxycarbonylamino-3,4-dihydro-2,2-dimethyl-2H-1-benzopyran-4-yl)urea] gave an IC50 (U373) of 18 µM, an IC50 (Hs683) of 12 µM and an IC50 [1] of 17 ± 3 µM. The IC50 [2] was over 200 µM, the “Bioselectivity (I / II)” value [3] was over 12 and the “QVM Class” value [4] was “III (Class III: cytostatic but rapidly becomes cytotoxic with < 10% cell death on the 1st day, > 20% of cell death on the 2nd day and > 50% of cell death on the 3rd day)”. For the same compound, the IC50 (T98G) was 20 µM.
Work on `CC(C)(C)OC(=O)Nc1ccc2c(c1)C(NC(=O)Nc1cccc(C(F)(F)F)c1)CC(C)(C)O2` (racemic) [Example 25, R/S-N-3-trifluoromethylphenyl-N'-(6-tert-butoxycarbonylamino-3,4-dihydro-2,2-dimethyl-2H-1-benzopyran-4-yl)urea] yielded an IC50 (U373) of 9 µM, an IC50 (Hs683) of 8 µM and an IC50 [1] of 13 ± 4 µM. For the same compound, the IC50 [2] was about 20 µM, the “Bioselectivity (I / II)” value [3] was under 2 and the “QVM Class” value [4] was “II (Class II: cytostatic but becomes cytotoxic with < 10% cell death on the 2nd day and > 20% of cell death on the 3rd day)”. For the same compound, the IC50 (T98G) was 21 µM.
Work on `CC(C)(C)OC(=O)Nc1ccc2c(c1)C(NC(=O)Nc1cc(C(F)(F)F)cc(C(F)(F)F)c1)CC(C)(C)O2` (racemic) [Example 29, R/S-N-3,5-di(trifluoromethyl)phenyl-N'-(6-tert-butoxycarbonylamino-3,4-dihydro-2,2-dimethyl-2H-1-benzopyran-4-yl)urea] yielded an IC50 (U373) of 4 µM, an IC50 (Hs683) of 3 µM and an IC50 [1] of 4 ± 1 µM. The IC50 [2] was about 20 µM, the “Bioselectivity (I / II)” value [3] was “∼ 5” and the “QVM Class” value [4] was “I (Class I: actually cytostatic for 3 days (< 10 % of cell death at the 3rd day))”. The IC50 (T98G) was 5 µM.
In the case of `CC(C)(C)OC(=O)Nc1ccc2c(c1)C(NC(=O)Nc1cc(F)cc(F)c1)CC(C)(C)O2` (racemic) [Example 21, R/S-N-3,5-difluorophenyl-N'-(6-tert-butoxycarbonylamino-3,4-dihydro-2,2-dimethyl-2H-1-benzopyran-4-yl)urea], the IC50 (U373) is reported as 6 µM, the IC50 (Hs683) is reported as 7 µM and the IC50 [1] is reported as 9 ± 3 µM. For the same compound, the IC50 [2] was about 45 µM, the “Bioselectivity (I / II)” value [3] was “∼ 5” and the “QVM Class” value [4] was “I (Class I: actually cytostatic for 3 days (< 10 % of cell death at the 3rd day))”. The IC50 (T98G) was 14 µM.
For `CC(C)(C)OC(=O)Nc1ccc2c(c1)C(NC(=O)Nc1ccc(C#N)cc1)CC(C)(C)O2` (racemic) [Example 15, R/S-N-4-cyanophenyl-N'-(6-tert-butoxycarbonylamino-3,4-dihydro-2,2-dimethyl-2H-1-benzopyran-4-yl)urea], the IC50 (U373) was 10 µM, the IC50 (Hs683) was 18 µM and the IC50 [1] was 18 ± 5 µM. For the same compound, the IC50 [2] was over 200 µM, the “Bioselectivity (I / II)” value [3] was over 10 and the “QVM Class” value [4] was “I (Class I: actually cytostatic for 3 days (< 10 % of cell death at the 3rd day))”. The IC50 (T98G) was 26 µM.
`CC(C)(C)OC(=O)Nc1ccc2c(c1)C(NC(=O)Nc1cccc([N+](=O)[O-])c1)CC(C)(C)O2` (racemic) [Example 23, R/S-N-3-nitrophenyl-N'-(6-tert-butoxycarbonylamino-3,4-dihydro-2,2-dimethyl-2H-1-benzopyran-4-yl)urea] was tested, and the IC50 (U373) was 1 µM, the IC50 (Hs683) was 16 µM and the IC50 [1] was 8 ± 4 µM. For the same compound, the IC50 [2] was under 40 µM, the “Bioselectivity (I / II)” value [3] was under 5 and the “QVM Class” value [4] was “I (Class I: actually cytostatic for 3 days (< 10 % of cell death at the 3rd day))”. The IC50 (T98G) was 7 µM.
`CC(C)(C)OC(=O)Nc1ccc2c(c1)C(NC(=O)Nc1cccc(C#N)c1)CC(C)(C)O2` (racemic) [Example 14, R/S-N-3-cyanophenyl-N'-(6-tert-butoxycarbonylamino-3,4-dihydro-2,2-dimethyl-2H-1-benzopyran-4-yl)urea] was tested, and the IC50 (U373) was 2 µM, the IC50 (Hs683) was 2 µM and the IC50 [1] was 2 ± 1 µM. The IC50 [2] was over 20 µM, the “Bioselectivity (I / II)” value [3] was over 10 and the “QVM Class” value [4] was “I (Class I: actually cytostatic for 3 days (< 10 % of cell death at the 3rd day))”. The IC50 (T98G) was 3 µM.
`CC(C)(C)OC(=O)Nc1ccc2c(c1)C(NC(=O)Nc1ccc(C(F)(F)F)cc1)CC(C)(C)O2` (racemic) [Example 24, R/S-N-4-trifluoromethylphenyl-N'-(6-tert-butoxycarbonylamino-3,4-dihydro-2,2-dimethyl-2H-1-benzopyran-4-yl)urea] showed an IC50 (U373) of 10 µM, an IC50 (Hs683) of 11 µM and an IC50 [1] of 12 ± 1 µM. The IC50 [2] was over 120 µM, the “Bioselectivity (I / II)” value [3] was over 10 and the “QVM Class” value [4] was “I (Class I: actually cytostatic for 3 days (< 10 % of cell death at the 3rd day))”. The IC50 (T98G) was 15 µM.
Work on `CC(C)(C)OC(=O)Nc1ccc2c(c1)C(NC(=O)Nc1cc(Cl)cc(Cl)c1)CC(C)(C)O2` (racemic) [Example 26, R/S-N-3,5-dichlorophenyl-N'-(6-tert-butoxycarbonylamino-3,4-dihydro-2,2-dimethyl-2H-1-benzopyran-4-yl)urea] yielded an IC50 (U373) of 6 µM, an IC50 (Hs683) of 9 µM and an IC50 [1] of 9 ± 2 µM. The IC50 [2] was about 40 µM, the “Bioselectivity (I / II)” value [3] was under 5 and the “QVM Class” value [4] was “II (Class II: cytostatic but becomes cytotoxic with < 10% cell death on the 2nd day and > 20% of cell death on the 3rd day)”. For the same compound, the IC50 (T98G) was 12 µM.
For `CC(C)(C)OC(=O)Nc1ccc2c(c1)C(NC(=O)Nc1ccccc1[N+](=O)[O-])CC(C)(C)O2` (racemic) [Example 27, R/S-N-2-nitrophenyl-N'-(6-tert-butoxycarbonylamino-3,4-dihydro-2,2-dimethyl-2H-1-benzopyran-4-yl)urea], the IC50 (U373) was 12 µM, the IC50 (Hs683) was 13 µM and the “QVM Class” value [4] was “I (Class I: actually cytostatic for 3 days (< 10 % of cell death at the 3rd day))”. The IC50 (T98G) was 22 µM.
In the case of `CC(C)(C)OC(=O)Nc1ccc2c(c1)C(NC(=O)Nc1ccc(Cl)cc1C(F)(F)F)CC(C)(C)O2` (racemic) [Example 37, R/S-N-4-chloro-2-trifluoromethylphenyl-N'-(6-tert-butoxycarbonylamino-3,4-dihydro-2,2-dimethyl-2H-1-benzopyran-4-yl)urea], the IC50 (U373) is reported as 34 µM, the IC50 (Hs683) is reported as 30 µM and the “QVM Class” value [4] is reported as “II (Class II: cytostatic but becomes cytotoxic with < 10% cell death on the 2nd day and > 20% of cell death on the 3rd day)”. For the same compound, the IC50 (T98G) was 38 µM.
In the case of `CC(C)(C)OC(=O)Nc1ccc2c(c1)C(NC(=O)Nc1ccc(F)cc1)CC(C)(C)O2` (racemic) [Example 18, R/S-N-4-fluorophenyl-N'-(6-tert-butoxycarbonylamino-3,4-dihydro-2,2-dimethyl-2H-1-benzopyran-4-yl)urea], the IC50 (U373) is reported as 30 µM, the IC50 (Hs683) is reported as 35 µM and the “QVM Class” value [4] is reported as “I (Class I: actually cytostatic for 3 days (< 10 % of cell death at the 3rd day))”. It also gave an IC50 (T98G) of 33 µM.
